Measurements as given in the supplement of paper PMC10307832.

Tests used:
Test in all cases: relative viability (nuclei count vs DMSO), 5 days (fraction); higher = more cells survive
Tivantinib + Dasatinib = compound: O=C1NC(=O)[C@@H](c2cn3c4c(cccc24)CCC3)[C@@H]1c1c[nH]c2ccccc12 [Tivantinib] + Cc1nc(Nc2ncc(C(=O)Nc3c(C)cccc3Cl)s2)cc(N2CCN(CCO)CC2)n1 [Dasatinib] (partner 0.075 µM)
Procedure, shortened: (§1)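 A single step with final 0.05% Triton X-100, 1% formaldehyde and 1 ug/ml Hoechst fixed the cells and stained nuclei 5 days after treatment. Lung cancer cell lines in 1536-well plates had been treated by pin tool the day after seeding with one drug alone or a fixed anchor-drug dose plus five library-drug doses (not always all listed) in √10 steps, and nuclei were counted on 4× images. Relative viability is the ratio of nuclei in treated wells to nuclei in vehicle wells, taken as the median of duplicate plates.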

Crenolanib + Vorinostat = compound: CC1(COc2ccc3c(c2)ncn3-c2ccc3cccc(N4CCC(N)CC4)c3n2)COC1 [Crenolanib] + O=C(CCCCCCC(=O)Nc1ccccc1)NO [Vorinostat] (partner 1 µM)
Procedure, shortened: as §1

Tivantinib + Vorinostat = compound: O=C1NC(=O)[C@@H](c2cn3c4c(cccc24)CCC3)[C@@H]1c1c[nH]c2ccccc12 [Tivantinib] + O=C(CCCCCCC(=O)Nc1ccccc1)NO [Vorinostat] (partner 1 µM)
Procedure, shortened: as §1

Tivantinib + Decitabine = compound: O=C1NC(=O)[C@@H](c2cn3c4c(cccc24)CCC3)[C@@H]1c1c[nH]c2ccccc12 [Tivantinib] + Nc1ncn([C@H]2C[C@H](O)[C@@H](CO)O2)c(=O)n1 [Decitabine] (partner 2 µM)
Procedure, shortened: as §1

| Cell Line | relative viability (Tivantinib + Dasatinib; first compound 0.01 µM) | relative viability (Tivantinib + Dasatinib; first compound 0.03162 µM) | relative viability (Tivantinib + Dasatinib; first compound 0.1 µM) | relative viability (Tivantinib + Dasatinib; first compound 0.3162 µM) | relative viability (Crenolanib + Vorinostat; first compound 0.01 µM) | relative viability (Crenolanib + Vorinostat; first compound 0.03162 µM) | relative viability (Crenolanib + Vorinostat; first compound 0.1 µM) | relative viability (Crenolanib + Vorinostat; first compound 0.3162 µM) | relative viability (Crenolanib + Vorinostat; first compound 1 µM) | relative viability (Tivantinib + Vorinostat; first compound 0.01 µM) | relative viability (Tivantinib + Vorinostat; first compound 0.03162 µM) | relative viability (Tivantinib + Vorinostat; first compound 0.1 µM) | relative viability (Tivantinib + Vorinostat; first compound 0.3162 µM) | relative viability (Tivantinib + Decitabine; first compound 0.01 µM) | relative viability (Tivantinib + Decitabine; first compound 0.03162 µM) | relative viability (Tivantinib + Decitabine; first compound 0.1 µM) | relative viability (Tivantinib + Decitabine; first compound 0.3162 µM) |
| --- | --- | --- | --- | --- | --- | --- | --- | --- | --- | --- | --- | --- | --- | --- | --- | --- | --- |
| NCI-H2342 | 0.31 | 0.296 | 0.322 | 0.31 | 0.729 | 0.682 | 0.688 | 0.788 | 0.691 | 0.739 | 0.766 | 0.788 | 0.614 | 0.845 | 0.789 | 0.699 | 0.624 |
| SK-MES-1 | 0.521 | 0.386 | 0.309 | 0.186 | 1.15 | 1.16 | 0.954 | 1.1 | 1.05 | 1.16 | 0.945 | 1.06 | 0.935 | 0.299 | 0.351 |  | 0.337 |
| EPLC-272H | 0.409 | 0.343 | 0.293 | 0.176 | 0.435 | 0.622 | 0.469 | 0.308 | 0.584 | 0.493 | 0.599 | 0.41 | 0.296 | 0.389 | 0.331 | 0.383 | 0.31 |
| HCC-44 |  |  |  |  | 1.06 | 1.05 | 1.19 | 1.06 | 1.05 | 1.09 | 1.07 | 1.1 | 1.07 | 0.988 | 0.987 | 0.971 | 1.09 |
| 201T | 0.562 | 0.566 | 0.547 | 0.554 | 0.985 | 1 | 0.929 | 0.955 | 0.983 | 0.894 | 0.835 | 0.898 | 0.907 | 0.829 | 0.861 | 0.839 | 0.81 |
| HOP-62 | 0.711 | 0.521 | 0.606 | 0.739 | 0.653 | 0.542 | 0.635 | 0.829 | 0.552 | 0.606 | 0.301 | 0.554 | 0.803 | 0.173 | 0.191 | 0.196 | 0.242 |
| NCI-H650 | 0.504 | 0.359 | 0.461 | 0.527 | 0.408 | 0.42 | 0.468 | 0.368 | 0.417 | 0.45 | 0.356 | 0.443 | 0.4 | 0.355 | 0.287 | 0.315 | 0.327 |
| NCI-H2085 | 0.331 | 0.244 | 0.239 | 0.209 |  | 0.764 | 0.809 | 0.781 | 0.759 | 0.805 | 0.673 | 0.752 | 0.669 | 0.534 | 0.556 | 0.554 | 0.551 |
| NCI-H596 | 0.486 | 0.543 | 0.635 | 0.619 | 0.586 | 0.546 | 0.616 | 0.592 | 0.594 | 0.687 | 0.589 | 0.636 | 0.531 | 1.12 | 1.07 | 1.01 | 1.12 |
| SK-LU-1 | 0.186 | 0.178 | 0.173 | 0.169 | 0.735 | 0.863 | 0.603 | 0.811 | 0.795 | 0.742 | 0.764 | 0.65 | 0.836 | 0.711 | 0.679 | 0.593 | 0.555 |
| A-427 | 0.677 | 0.731 | 0.712 | 0.686 | 0.848 |  | 0.848 | 0.946 | 0.83 | 0.859 | 0.938 | 0.842 | 0.85 | 0.602 | 0.579 | 0.508 | 0.518 |
| NCI-H460 | 0.461 | 0.35 | 0.484 | 0.492 | 0.743 | 0.701 | 0.688 | 1.16 | 0.768 | 0.665 | 0.67 | 0.71 | 0.404 | 0.496 | 0.499 | 0.427 | 0.458 |
| NCI-H1734 | 0.425 | 0.472 | 0.436 | 0.478 | 0.852 | 0.801 | 0.786 | 0.946 | 0.757 | 0.8 | 0.745 | 0.768 | 0.818 | 0.532 | 0.487 | 0.506 | 0.427 |
| NCI-H1915 | 0.305 | 0.277 | 0.294 | 0.334 | 0.529 | 0.516 | 0.487 | 0.511 | 0.459 | 0.492 | 0.496 | 0.49 | 0.568 | 0.279 | 0.248 | 0.263 | 0.254 |
| SW 1573 | 0.717 | 0.481 | 0.453 | 0.548 | 0.961 | 0.624 | 0.995 | 0.929 | 0.606 | 1.04 | 0.53 | 0.75 | 0.67 | 0.688 | 0.462 | 0.446 | 0.494 |
| RERF-LC-KJ | 0.873 | 0.895 | 0.757 | 0.585 | 0.759 | 0.707 | 0.664 | 0.689 | 0.711 | 0.717 | 0.628 | 0.717 | 0.502 | 0.802 | 0.632 | 0.63 | 0.622 |
| EMC-BAC-2 | 0.35 | 0.307 | 0.183 | 0.343 | 0.47 |  | 0.485 | 0.447 | 0.303 | 0.532 | 0.522 | 0.496 | 0.582 | 1.03 | 0.981 | 0.941 | 0.965 |
| LK-2 | 0.281 |  | 0.341 | 0.301 | 0.326 | 0.259 | 0.273 | 0.354 | 0.311 | 0.219 | 0.34 | 0.217 | 0.311 | 0.233 | 0.196 | 0.262 | 0.29 |
| NCI-H2228 |  | 0.484 | 0.539 | 0.352 | 0.721 | 0.768 | 0.633 | 0.687 | 0.871 | 0.639 | 0.527 | 0.651 | 0.733 |  |  |  |  |
| NCI-H322M | 0.25 | 0.234 | 0.273 |  | 0.872 | 0.789 | 0.872 | 0.808 | 0.784 | 0.903 | 0.833 | 0.861 |  | 0.615 | 0.703 | 0.715 |  |
